Results on seven compounds are retold here after US12419902B2, “Anti-viral and anti-tumoral compounds” (priority 2019, dated 2025).

In brackets after ≈: the same amount, converted by molar mass.

One data set concerns Influenza A (H5N1). Kind of data set: microbe, parasite or virus in culture. The data set is classed as cell-based.
The next data set deals with Influenza B. Kind of data set: microbe, parasite or virus in culture. The data set is classed as cell-based.
Another data set deals with Influenza A (H1N1). Nature of the data set: microbe, parasite or virus in culture. The data set is classed as cell-based.
Data set [1] concerns Zika virus. As to conditions: nucleoside applied to cells, phosphorylated to ddhCTP; cited from earlier work.
In a further data set the test system is enterovirus-68 (EV-68). The data set is classed as cell-based.
A short description of data set [2]: in vitro. The note with it: African green monkey.
Data set [3] relates to Zika virus. The data set is classed as cell-based.
Data set [4] in a line: in vitro. The note with it: human.
A further data set has as its system RSV. Kind of data set: microbe, parasite or virus in culture. Format: cell-based. The note with it: human respiratory syncytial virus, MA104.
For data set [5], the system named is Rift Valley fever virus (RVFV). Kind of data set: microbe, parasite or virus in culture. Format: cell-based. The note with it: Vero 76.

One may read the EC50 as the concentration giving half of the maximal effect.

For `O=c1ccn([C@@H]2OC(CO)=C[C@H]2O)c(=O)[nH]1` [AB21649], the “antiviral activity (in words)” value in the data set with Influenza A (H5N1), with Influenza B and in the data set on Influenza A (H1N1) was “exhibits antiviral activity” each time.
Take `Nc1ccn([C@@H]2OC(CO)=C[C@H]2O)c(=O)n1` [AB21650, 3′-deoxy-3′,4′-didehydro cytidine]: the “replication of Zika virus” value in the data set on Zika virus [1] was “directly inhibit replication of Zika virus”. In addition, the “antiviral activity (in words)” value with enterovirus-68 (EV-68) is “exhibits some activity”.
`Nc1nc2c(ncn2[C@@H]2OC(CO)=CC2O)c(=O)[nH]1` (stereo partly drawn) [AB21651]: the “antiviral activity (in words)” value with Influenza A (H5N1) and in the data set on Influenza A (H1N1) was “exhibits antiviral activity” in each case.
`CC(C)S(=O)(=O)n1c(N)nc2ccc(/C(=N/O)c3ccccc3)cc21` [Enviroxime] displayed a CC50 in the data set “in vitro [2]” of 3.3 µg/mL (≈ 9.21 µM).
For `C#C[C@@]1(O)[C@H](O)[C@@H](CO)O[C@H]1n1ccc2c(N)ncnc21` [NITD008], the EC50 in the data set with Zika virus [3] was 1.8 µg/mL (≈ 6.2 µM).
In the data set “in vitro [4]”, `CCOC(=O)c1ccc(OCCC2CCN(c3ccc(C)nn3)CC2)cc1` [Pirodavir] came in with a CC50 of 4.3 µg/mL (≈ 11.6 µM).
As to `NC(=O)c1ncn([C@@H]2O[C@H](CO)[C@@H](O)[C@H]2O)n1` [Ribavirin], the EC50 in the data set with RSV was found to be 7.3 µg/mL (≈ 29.9 µM); in the data set on Influenza A (H5N1) (Influenza A virus, H5N1, MDCK), 1.8 µg/mL (≈ 7.37 µM); with Influenza B (Influenza B virus, MDCK), 1.4 µg/mL (≈ 5.73 µM); in data set [5] it was 14 µg/mL (≈ 57.3 µM); in the data set on Influenza A (H1N1) (Influenza A virus, H1N1, MDCK), 4.6 µg/mL (≈ 18.8 µM).
